Measured values taken from article PMC2362731, “Phase I study of Carzelesin (U-80,244) given (4-weekly) by intravenous bolus schedule” (British Journal of Cancer, 1999).

What was measured:
mice = tested on: mice; design: method as in McGovren et al, 1984; conditions: ref McGovren et al, 1984; cited from earlier work
rabbits = tested on: rabbits; design: method as in McGovren et al, 1984; conditions: ref McGovren et al, 1984; cited from earlier work
patients = tested on: patients; design: method as in Sessa et al, 1994; conditions: day 1 q 4 weeks schedule; ref Sessa et al, 1994; cited from earlier work
[1] = Plasma pharmacokinetics of Carzelesin and metabolites by HPLC, first course; assay type: in vivo, human; conditions: for mean concentration of metabolite: highest dose level 300 of Carzelesin
Procedure: Carzelesin is a cyclopropylpyrroloindole analogue which acts as a DNA-sequence-specific alkylating agent. In this phase I study, Carzelesin was given as a 4-weekly 10 min IV infusion to 51 patients with advanced solid tumours. Patients received a median of two courses (range 1–5) at one of nine dose levels: 24, 48, 96, 130, 150, 170, 210, 250 and 300 μg m^−2. According to NCI-CTC criteria, non-haematological toxicities (grade 1/2) included fever, nausea and vomiting, mucositis and anorexia, none of which was clearly dose related. The dose-limiting toxicity was haematological and consisted mainly of neutropenia and to a lesser extent thrombocytopenia. From the dose level 150 μg m^−2, the haematological toxicity (particularly thrombocytopenia) was delayed in onset, prolonged and cumulative in some patients. In several courses, double WBC nadirs occurred. The maximum tolerated dose for a single course was 300 μg m^−2. From the dose level 170 μg m^−2, the intended dose intensity could not be delivered to most patients receiving > 2 courses owing to cumulative haematological toxicity. The dose level with the best dose intensity for multiple courses was 150 μg m^−2. The pharmacokinetics of Carzelesin and its metabolites (U-76,073; U-76,074) have been established in 31 patients during the first course of treatment using a HPLC method. […] The concentration of U-76,074 (active metabolite) extended above the lower limit of quantitation (1 ng ml^−1) for short periods of time and only at the higher dose levels. There was no relationship between neutropenia and the AUC of the prodrug Carzelesin, but the presence of detectable plasma levels of the active metabolite U-76,074 was usually associated with a substantial decrease in ANC values. © 1999 Cancer Research Campaign
Carzelesin (U-80,244, Figure 1A) is a cyclopropylpyrroloindole (CPI) prodrug analogue of CC-1065. […] CPI drugs are a class of compounds with unique DNA interactive properties. These agents fit into the minor groove region of DNA, and the CPI function in the molecule mediates a covalent binding to the N3 position of adenine in A-T rich regions, thus forming DNA adducts in a sequence selective fashion (Hurley et al, 1984; Reynolds et al, 1985). Three new CPIs have now been developed. […] Bizelesin differs from the classical CPI drugs in that it contains two chloromethyl functions, which are both converted (via intramolecular rearrangements) to the CPI alkyl- ating species that interact with DNA. Consequently, this agent is capable of forming DNA interstrand cross-links (Lee et al, 1991). […] Therefore, efforts were directed to modu- late the alkylation rate by the preparation of CPI prodrugs that would require chemical or enzymatic conversion. The activation of Carzelesin is a two-step reaction with hydrolysis of the phenyl- urethane substituent to form the intermediate compound U-76,073, followed by ring closure to form the active product U-76,074 (Figure 1B). […] This higher efficacy may be related to the pharmacologic features of the compound. […] Phase I study of Carzelesin (U-80,244) given (4-weekly) by intravenous bolus schedule A Awada1, CJA Punt2, MJ Piccart1, O Van Tellingen3, L Van Manen2, J Kerger1, Y Groot4, J Wanders4, J Verweij5 and DJTh Wagener2 1Institut Jules Bordet, Bd de Waterloo 125, 1000 Brussels, Belgium; 2University Hospital, Geert Grooteplein 8, Box 9101, 6500 HB Nijmegen, The Netherlands; 3The Netherlands Cancer Institute (Antoni van Leeuwenhoek Huis), Plesmanlaan 121, 1066 CX Amsterdam, The Netherlands; 4European Organization for Research and Treatment of Cancer - New Drug Development Office, PO Box 7057, Amsterdam, The Netherlands; 5Rotterdam Cancer Institute, Groene Hilledijk 301, 3075 EA Rotterdam, The Netherlands; on behalf of the EORTC Early Clinical Studies Group and EORTC NDDO Summary Carzelesin is a cyclopropylpyrroloindole analogue which acts as a DNA-sequence-specific alkylating agent. […]

[2] = tested on: granulocytes (ANC), white blood cells (WBC), platelets; assay: Pharmacokinetic-pharmacodynamic relationship of bone marrow toxicity (%decr vs AUC); assay type: in vivo; conditions: plasma level of U-76,074 above 1 ng ml-1
Source text: Carzelesin (U-80,244, Figure 1A) is a cyclopropylpyrroloindole (CPI) prodrug analogue of CC-1065. […] CPI drugs are a class of compounds with unique DNA interactive properties. These agents fit into the minor groove region of DNA, and the CPI function in the molecule mediates a covalent binding to the N3 position of adenine in A-T rich regions, thus forming DNA adducts in a sequence selective fashion (Hurley et al, 1984; Reynolds et al, 1985). Three new CPIs have now been developed. […] Bizelesin differs from the classical CPI drugs in that it contains two chloromethyl functions, which are both converted (via intramolecular rearrangements) to the CPI alkyl- ating species that interact with DNA. Consequently, this agent is capable of forming DNA interstrand cross-links (Lee et al, 1991). […] Therefore, efforts were directed to modu- late the alkylation rate by the preparation of CPI prodrugs that would require chemical or enzymatic conversion. The activation of Carzelesin is a two-step reaction with hydrolysis of the phenyl- urethane substituent to form the intermediate compound U-76,073, followed by ring closure to form the active product U-76,074 (Figure 1B). […] This higher efficacy may be related to the pharmacologic features of the compound. […] Phase I study of Carzelesin (U-80,244) given (4-weekly) by intravenous bolus schedule A Awada1, CJA Punt2, MJ Piccart1, O Van Tellingen3, L Van Manen2, J Kerger1, Y Groot4, J Wanders4, J Verweij5 and DJTh Wagener2 1Institut Jules Bordet, Bd de Waterloo 125, 1000 Brussels, Belgium; 2University Hospital, Geert Grooteplein 8, Box 9101, 6500 HB Nijmegen, The Netherlands; 3The Netherlands Cancer Institute (Antoni van Leeuwenhoek Huis), Plesmanlaan 121, 1066 CX Amsterdam, The Netherlands; 4European Organization for Research and Treatment of Cancer - New Drug Development Office, PO Box 7057, Amsterdam, The Netherlands; 5Rotterdam Cancer Institute, Groene Hilledijk 301, 3075 EA Rotterdam, The Netherlands; on behalf of the EORTC Early Clinical Studies Group and EORTC NDDO Summary Carzelesin is a cyclopropylpyrroloindole analogue which acts as a DNA-sequence-specific alkylating agent. In this phase I study, Carzelesin was given as a 4-weekly 10 min IV infusion to 51 patients with advanced solid tumours. Patients received a median of two courses (range 1-5) at one of nine dose levels: […]. According to NCI-CTC criteria, non- haematological toxicities (grade 1/2) included fever, nausea and vomiting, mucositis and anorexia, none of which was clearly dose related. […] The concentration of U-76,074 (active metabolite) extended above the lower limit of quantitation (1 ng ml-1) for short periods of time and only at the higher dose levels. […]

Structure (SMILES): COc1c(O)c2c(c3cc(C(=O)N4CCc5c4c(O)c(OC)c4[nH]c(C(=O)N6CC7CC78C6=CC(=O)c6[nH]cc(C)c68)cc54)[nH]c13)CCN2C(N)=O (centres unmarked) [CC-1065]
- toxicity at sub-therapeutic doses (mice): delayed fatal toxicity
- toxicity at sub-therapeutic doses (rabbits): delayed fatal toxicity

Structure (SMILES): Cn1cc(NC(=O)c2cc(NC(=O)c3cc(NC(=O)c4ccc(N(CCCl)CCCl)cc4)cn3C)cn2C)cc1C(=O)NCCC(=N)N [Tallimustine]
- dose-limiting toxicity (patients): brief neutropenia

Structure (SMILES): CCN(CC)c1ccc2cc(C(=O)Nc3ccc4[nH]c(C(=O)N5C[C@@H](CCl)c6c5cc(O)c5[nH]cc(C)c65)cc4c3)oc2c1 [U-76,073]
- mean concentration of metabolite [1]: 18 ng/mL

Structure (SMILES): CCN(CC)c1ccc2cc(C(=O)Nc3ccc4[nH]c(C(=O)N5C[C@H]6C[C@@]67C5=CC(=O)c5[nH]cc(C)c57)cc4c3)oc2c1 [U-76,074]
- decrease in ANC values associated with detectable plasma levels [2]: greater than 60%
- plasma level of active metabolite, for short periods of time in most patients ([1]; Carzelesin dose of 130 or higher): exceeded 1 ng ml-1
- plasma concentration of active metabolite in the majority of patients ([1]; from the Carzelesin dose level 96): 1 to 2 ng/mL
- mean concentration of metabolite [1]: 3 ng/mL
